Assay results reported in publication PMC3827627 (ACS chemical biology, 2013).

How the values were obtained:
RIIβ-S112A holoenzyme = RIIβ-S112A holoenzyme (Rattus norvegicus, UniProt P12369, S112A); assay type: biochemical; conditions: LiReC assay; for EC50: read-out: RIIβ EC50, RIIβ-S112A holoenzyme, 6 nM PKA holoenzyme, 3 nM TR-IP20
PKA-RIα holoenzyme = PKA-RIα holoenzyme (Bos taurus, UniProt P00514); assay type: biochemical; conditions: for EC50: read-out: RIα EC50, LiReC assay, 6 nM PKA holoenzyme, 3 nM TR-IP20
Sequence of PKA-RIα holoenzyme (P00514 92-380): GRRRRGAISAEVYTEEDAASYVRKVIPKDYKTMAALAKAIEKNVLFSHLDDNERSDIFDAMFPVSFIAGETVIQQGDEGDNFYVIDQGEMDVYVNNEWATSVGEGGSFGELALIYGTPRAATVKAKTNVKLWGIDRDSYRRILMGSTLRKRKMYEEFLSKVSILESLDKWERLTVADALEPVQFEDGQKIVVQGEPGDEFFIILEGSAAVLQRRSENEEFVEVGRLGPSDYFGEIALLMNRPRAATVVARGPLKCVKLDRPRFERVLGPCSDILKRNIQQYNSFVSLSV

Sequence of RIIβ-S112A holoenzyme (P12369 108-402 S112A): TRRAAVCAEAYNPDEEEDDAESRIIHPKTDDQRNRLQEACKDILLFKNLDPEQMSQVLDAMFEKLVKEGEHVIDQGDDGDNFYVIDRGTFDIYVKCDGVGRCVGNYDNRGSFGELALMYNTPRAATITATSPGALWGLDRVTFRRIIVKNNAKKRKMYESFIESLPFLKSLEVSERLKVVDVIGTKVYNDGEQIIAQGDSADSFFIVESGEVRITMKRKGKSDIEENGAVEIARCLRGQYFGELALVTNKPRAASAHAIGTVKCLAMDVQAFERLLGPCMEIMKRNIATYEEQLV

Row | activation of RIIβ holoenzymes (in words) (RIIβ-S112A holoenzyme) | EC50 (RIIβ-S112A holoenzyme) | EC50 (PKA-RIα holoenzyme) | fold increase in EC50 relative to cAMP (PKA-RIα holoenzyme; RIα holoenzyme, HE33 vs cAMP) | Molecule
1 | – | 1.15 µM | 0.358 µM | – | CCCCCCNc1nc2c(N)ncnc2n1[C@@H]1O[C@@H]2COP(=O)(O)OC2[C@@H]1O (stereo partly shown) [8-HA cAMP]
2 | – | 5.08 µM | 15 µM | – | Nc1nc2c(ncn2[C@@H]2O[C@@H]3COP(=O)(O)O[C@H]3[C@H]2O)c(=O)[nH]1 [cGMP]
3 | – | 0.184 µM | 0.081 µM | – | Nc1ncnc2c1nc(Br)n2[C@@H]1O[C@@H]2COP(=O)(O)O[C@H]2[C@H]1O [8-Br cAMP]
4 | – | 0.197 µM | 0.116 µM | – | NCCCCCCNc1nc2c(N)ncnc2n1[C@@H]1O[C@@H]2COP(=O)(O)O[C@H]2[C@H]1O [8-AHA cAMP]
5 | – | 0.045 µM | 0.414 µM | 10 fold | CCCN(CCC)c1ncnc2c1ncn2[C@@H]1O[C@@H]2COP(=O)(O)O[C@H]2[C@H]1O [HE33]
6 | – | 0.059 µM | 0.289 µM | – | CC(C)(C)NC(=O)Nc1ncnc2c1ncn2[C@@H]1O[C@@H]2COP(=O)(O)O[C@H]2[C@H]1O [6-MBC cAMP]
7 | – | 0.275 µM | 0.058 µM | – | Nc1ncnc2c1nc(Cl)n2[C@@H]1O[C@@H]2COP(=O)(O)O[C@H]2[C@H]1O [8-Cl cAMP]
8 | – | 0.223 µM | 0.102 µM | – | CNc1nc2c(N)ncnc2n1[C@@H]1O[C@@H]2COP(=O)(O)O[C@H]2[C@H]1O [8-MA cAMP]
9 | – | 3.95 µM | 1.02 µM | – | Nc1ncnc2c1nc(N1CCCCC1)n2[C@@H]1O[C@@H]2COP(=O)(O)O[C@H]2[C@H]1O [8-PIP cAMP]
10 | – | 0.149 µM | 0.033 µM | – | Nc1ncnc2c1nc(Sc1ccc(Cl)cc1)n2[C@@H]1O[C@@H]2COP(=O)(O)O[C@H]2[C@H]1O [8-CPT cAMP]
11 | – | 0.02 µM | 0.092 µM | – | O=P1(O)OC[C@H]2O[C@@H](n3cnc4c(Nc5ccccc5)ncnc43)[C@@H](O)C2O1 (stereo partly shown) [6-Phe cAMP]

Further lines, the molecule ahead of its results:

Row | Molecule | activation of RIIβ holoenzymes (in words) (RIIβ-S112A holoenzyme) | EC50 (RIIβ-S112A holoenzyme) | EC50 (PKA-RIα holoenzyme) | fold increase in EC50 relative to cAMP (PKA-RIα holoenzyme; RIα holoenzyme, HE33 vs cAMP)
12 | CCCC(=O)Nc1ncnc2c1ncn2[C@@H]1O[C@@H]2COP(=O)(O)O[C@H]2[C@H]1O [6-MB cAMP] | potent RIIβ activators | 0.039 µM | 0.14 µM | –
13 | 2-OMe cAMP | – | – | 5.67 µM | –
14 | O=P1(S)OCC2OC(n3cnc4cc(Cl)c(Cl)cc43)C(O)C2O1 (stereo not shown) [Sp-5,6-DCl BIMPS] | – | 0.083 µM | 0.344 µM | –
15 | O=[P@]1(S)OC[C@H]2O[C@@H](n3cnc4cc(Cl)c(Cl)cc43)[C@H](O)[C@@H]2O1 [5,6 DCl BIMPS] | – | 0.129 µM | 0.27 µM | –
16 | Nc1ncnc2c1nc(N1CCCCC1)n2[C@@H]1O[C@@H]2COP(O)(=S)O[C@@H]2C1O (stereo partly shown) [Sp-8-PIP cAMP] | – | 2.96 µM | 5.05 µM | –
17 | Nc1ncnc2c1nc(Sc1ccc(Cl)cc1)n2[C@@H]1O[C@@H]2CO[P@](=O)(S)O[C@H]2[C@H]1O [Sp-8-CPT cAMP] | – | 0.096 µM | 0.342 µM | –
18 | Nc1nc(Cl)nc2c1ncn2[C@@H]1O[C@@H]2COP(=O)(O)OC2[C@@H]1O (stereo partly shown) [2-Cl cAMP] | – | 0.045 µM | 0.042 µM | –
19 | Nc1ncnc2c1nc(Br)n2[C@@H]1O[C@@H]2COP(O)(=S)O[C@H]2[C@H]1O (stereo partly shown) [Sp-8-B cAMP] | – | 0.435 µM | 1.35 µM | –
20 | O=C(Nc1ncnc2c1ncn2[C@@H]1O[C@@H]2COP(=O)(O)OC2C1O)c1ccccc1 (stereo in doubt) [6-Bnz cAMP] | – | 0.035 µM | 0.17 µM | –
21 | Nc1ncnc2c1ncn2[C@@H]1O[C@@H]2COP(O)(=S)O[C@H]2[C@H]1O (stereo partly shown) [Sp cAMP] | – | 2.27 µM | 1.59 µM | –
